# Patent US20210114983A1, “Cathepsin C inhibitors” (National Institute of Biological Sciences, Beijing, priority 2018, published 2021)
# Molecular target: rhCatC (Cathepsin C) (Homo sapiens, UniProt P53634)
# Experiment: In Vitro CatC Enzyme Assay
# Format: biochemical
# Conditions: read-out: Cat C Enzy (Cathepsin C inhibitory activity, IC50)
# Protocol: In Vitro CatC Enzyme Assay
# The CatC enzyme assay was performed in black 384-well plate. Firstly, rhCatC (440 nM) was activated by rhCatL (300 nM) in activation buffer (25 mM MES, 5 mM DTT, pH 6.0) at room temperature for 2 h and then activated rhCatC was diluted to 4.4 nM in assay buffer (25 mM MES, 50 mM NaCl, 5 mM DTT, 0.01% (v/v) Triton X100, pH 6.0), 14 μL activated rhCatC and 1 μL compound in 10% DMSO or 10% DMSO were incubated at room temperature for 3 h, and 5 μL substrate (Gly-Phe-AFC) was added to final concentration of 100 μM. After 60 min reaction, the product of the reaction was measured in the Enspire plate reader using Ex λ400 nm and Em λ505 nm for AFC. A standard irreversible CatC inhibitor 10 by AstraZeneca (J. Med. Chem. 2014, 57, 2357-2367) was used as an inhibitor control in the assay.
# Chain of rhCatC (Cathepsin C) (P53634 25-134 limits assumed): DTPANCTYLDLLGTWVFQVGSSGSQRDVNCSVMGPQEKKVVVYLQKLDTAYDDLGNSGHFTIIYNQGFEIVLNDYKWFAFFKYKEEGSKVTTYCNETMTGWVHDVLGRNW
# Chain of rhCatC (Cathepsin C) (P53634 231-394 limits assumed): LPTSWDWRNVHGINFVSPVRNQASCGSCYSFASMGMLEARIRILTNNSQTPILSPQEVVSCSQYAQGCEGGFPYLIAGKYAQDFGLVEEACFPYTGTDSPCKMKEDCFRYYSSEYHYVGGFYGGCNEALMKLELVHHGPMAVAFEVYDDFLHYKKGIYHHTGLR
# Chain of rhCatC (Cathepsin C) (P53634 395-463 limits assumed): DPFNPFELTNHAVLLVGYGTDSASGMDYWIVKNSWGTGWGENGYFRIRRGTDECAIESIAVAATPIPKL
row,Structure (SMILES),IC50
1,"C=CC(=O)Nc1cc(Oc2nc(Nc3ccc(N4CCN(C)CC4)nc3OC)ccc2N2CCCCC2)ccc1C [Compound 35, N-(5-((6-((2-methoxy-6-(4-methylpiperazin-1-yl)pyridin-3-yl)amino)-3-(piperidin-1-yl)pyridin-2-yl)oxy)-2-methylphenyl)acrylamide]",3 to 300 nM
2,"C=CC(=O)Nc1cc(Oc2nc(Nc3ccc(N4CCN(C(C)=O)CC4)cc3OC)ccc2N2CCCCC2)ccc1C [Compound 36, N-(5-((6-((4-(4-acetylpiperazin-1-yl)-2-methoxyphenyl)amino)-3-(piperidin-1-yl)pyridin-2-yl)oxy)-2-methylphenyl)acrylamide]",3 to 300 nM
3,"C=CC(=O)Nc1cc(Oc2nc(Nc3ccc(N4CCC(N(C)C)CC4)cc3OC)ccc2N2CCCCC2)ccc1C [Compound 37, N-(5-((6-((4-(4-(dimethylamino)piperidin-1-yl)-2-methoxyphenyl)amino)-3-(piperidin-1-yl)pyridin-2-yl)oxy)-2-methylphenyl)acrylamide]",3 to 300 nM
4,"C=CC(=O)Nc1cc(Oc2nc(Nc3ccc(N4CCN(C)CC4)cc3)ccc2N2CCCCC2)ccc1C [Compound 38, N-(2-methyl-5-((6-((4-(4-methylpiperazin-1-yl)phenyl)amino)-3-(piperidin-1-yl)pyridin-2-yl)oxy)phenyl)acrylamide]",3 to 300 nM
5,"C=CC(=O)Nc1cc(Oc2nc(Nc3ccc(N4CCN(C)CC4)cc3OC)ccc2N2CCCC2)ccc1OC [Compound 39, N-(2-methoxy-5-((6-((2-methoxy-4-(4-methylpiperazin-1-yl)phenyl)amino)-3-(pyrrolidin-1-yl)pyridin-2-yl)oxy)phenyl)acrylamide]",3 to 300 nM
6,"C=CC(=O)Nc1cc(Oc2cccc(Nc3ccc(N4CCN(C)CC4)cc3OC)n2)ccc1OC [Compound 40, N-(2-methoxy-5-((6-((2-methoxy-4-(4-methylpiperazin-1-yl)phenyl)amino)pyridin-2-yl)oxy)phenyl)acrylamide]",300 to 30000 nM
7,"C=CC(=O)Nc1cccc(Oc2nc(Nc3ccc(N4CCN(C)CC4)cc3OC)ccc2N2CCCC2)c1C [Compound 41, N-(3-((6-((2-methoxy-4-(4-methylpiperazin-1-yl)phenyl)amino)-3-(pyrrolidin-1-yl)pyridin-2-yl)oxy)-2-methylphenyl)acrylamide]",300 to 30000 nM
8,"C=CC(=O)Nc1ccc(C)c(Oc2nc(Nc3ccc(N4CCN(C)CC4)cc3OC)ccc2N2CCCC2)c1 [Compound 42, N-(3-((6-((2-methoxy-4-(4-methylpiperazin-1-yl)phenyl)amino)-3-(pyrrolidin-1-yl)pyridin-2-yl)oxy)-4-methylphenyl)acrylamide]",300 to 30000 nM
9,"C=CC(=O)Nc1cc(Oc2cccc(Nc3ccc(N4CCN(C)CC4)cc3OC)n2)ccc1C [Compound 43, N-(5-((6-((2-methoxy-4-(4-methylpiperazin-1-yl)phenyl)amino)pyridin-2-yl)oxy)-2-methylphenyl)acrylamide]",3 to 300 nM
10,"C=CC(=O)Nc1cc(Oc2nc(Nc3ccc(N4CCN(C)CC4)cc3OC)ccc2N2CCCC2)ccc1C(F)(F)F [Compound 44, N-(5-((6-((2-methoxy-4-(4-methylpiperazin-1-yl)phenyl)amino)-3-(pyrrolidin-1-yl)pyridin-2-yl)oxy)-2-(trifluoromethyl)phenyl)acrylamide]",3 to 300 nM
11,C=CC(=O)Nc1cc(Oc2nc(Nc3ccc(N4CCN(C)CC4)cc3OC)ccc2N2CCCCC2)ccc1C(F)(F)F [Compound 45],3 to 300 nM
12,"COc1cc(N2CCN(C)CC2)ccc1Nc1ccc(N2CCCCC2)c(Oc2ccc(C)c(NC(=O)C=C(C)C)c2)n1 [Compound 46, N-(5-((6-((2-methoxy-4-(4-methylpiperazin-1-yl)phenyl)amino)-3-(piperidin-1-yl)pyridin-2-yl)oxy)-2-methylphenyl)-3-methylbut-2-enamide]",300 to 30000 nM
13,"CC#CC(=O)Nc1cc(Oc2nc(Nc3ccc(N4CCN(C)CC4)cc3OC)ccc2N2CCCCC2)ccc1C [Compound 47, N-(5-((6-((2-methoxy-4-(4-methylpiperazin-1-yl)phenyl)amino)-3-(piperidin-1-yl)pyridin-2-yl)oxy)-2-methylphenyl)but-2-ynamide]",300 to 30000 nM
14,"C#CC(=O)Nc1cc(Oc2nc(Nc3ccc(N4CCN(C)CC4)cc3OC)ccc2N2CCCCC2)ccc1C [Compound 48, N-(5-((6-((2-methoxy-4-(4-methylpiperazin-1-yl)phenyl)amino)-3-(piperidin-1-yl)pyridin-2-yl)oxy)-2-methylphenyl)propiolamide]",3 to 300 nM
15,"C=C(F)C(=O)Nc1cc(Oc2nc(Nc3ccc(N4CCN(C)CC4)cc3OC)ccc2N2CCCCC2)ccc1C [Compound 49, 2-fluoro-N-(5-((6-((2-methoxy-4-(4-methylpiperazin-1-yl)phenyl)amino)-3-(piperidin-1-yl)pyridin-2-yl)oxy)-2-methylphenyl)acrylamide]",300 to 30000 nM
16,"C=CC(=O)Nc1cc(Oc2nc(Nc3ccc(N4CCN(C)CC4)cc3OC)ccc2Cl)ccc1C(F)(F)F [Compound 50, N-(5-((3-chloro-6-((2-methoxy-4-(4-methylpiperazin-1-yl)phenyl)amino)pyridin-2-yl)oxy)-2-(trifluoromethyl)phenyl)acrylamide]",3 to 300 nM
17,"C=CC(=O)Nc1cc(Oc2cccc(Nc3ccc(N4CCN(C)CC4)cc3OC)n2)ccc1C(F)(F)F [Compound 51, N-(5-((6-((2-methoxy-4-(4-methylpiperazin-1-yl)phenyl)amino)pyridin-2-yl)oxy)-2-(trifluoromethyl)phenyl)acrylamide]",3 to 300 nM
18,"C=CC(=O)Nc1cccc(Oc2nc(Nc3ccc(N4CCN(C)CC4)cc3OC)ccc2N2CCCCC2)c1 [Compound 52, N-(3-((6-((2-methoxy-4-(4-methylpiperazin-1-yl)phenyl)amino)-3-(piperidin-1-yl)pyridin-2-yl)oxy)phenyl)acrylamide]",3 to 300 nM
19,"C=CC(=O)Nc1cccc(Oc2nc(Nc3ccc(N4CCN(C)CC4)cc3OC)ccc2N2CCCCCC2)c1 [Compound 53, N-(3-((3-(azepan-1-yl)-6-((2-methoxy-4-(4-methylpiperazin-1-yl)phenyl)amino)pyridin-2-yl)oxy)phenyl)acrylamide]",3 to 300 nM
20,C=CC(=O)Nc1cc(Oc2nc(Nc3ccc(N4CCNCC4)cc3OC)ccc2N2CCCCC2)ccc1C [Compound 54],3 to 300 nM
21,C=CC(=O)Nc1cc(Oc2nc(Nc3ccc(N4CCC(N(C)C)CC4)cn3)ccc2N2CCCCC2)ccc1C [Compound 55],300 to 30000 nM
22,C#CCN1CCN(c2ccc(Nc3ccc(N4CCCCC4)c(Oc4ccc(C)c(NC(=O)C=C)c4)n3)c(OC)c2)CC1 [Compound 56],3 to 300 nM
